In ChEMBL document CHEMBL1201862, “PubChem BioAssay data set” (2004) one finds EC50 and AC50 data, which are given here for 44 compounds.

Some targets named below: Cytochrome P450 3A4 (Homo sapiens, UniProt P08684); Cytochrome P450 2C9 (Homo sapiens, UniProt P11712); Cytochrome P450 2D6 (Homo sapiens, UniProt P10635).
A further test deals with T1, Streptokinase A (Streptococcus pyogenes serotype M1, UniProt P10520).
T1 sequence (P10520 whole entry): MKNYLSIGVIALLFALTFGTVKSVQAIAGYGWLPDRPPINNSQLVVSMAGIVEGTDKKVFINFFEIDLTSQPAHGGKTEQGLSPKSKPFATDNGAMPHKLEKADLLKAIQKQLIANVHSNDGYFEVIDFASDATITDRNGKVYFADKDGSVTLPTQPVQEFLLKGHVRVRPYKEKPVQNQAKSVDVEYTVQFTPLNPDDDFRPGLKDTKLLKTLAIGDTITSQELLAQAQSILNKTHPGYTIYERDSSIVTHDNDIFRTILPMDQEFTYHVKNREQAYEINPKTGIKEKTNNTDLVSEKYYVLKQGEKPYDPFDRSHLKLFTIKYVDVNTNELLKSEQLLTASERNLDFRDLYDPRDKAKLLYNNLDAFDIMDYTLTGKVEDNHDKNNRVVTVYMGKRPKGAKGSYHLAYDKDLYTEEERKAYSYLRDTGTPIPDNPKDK
Put plainly: S. pyogenes streptokinase expression inhibitors, potency, dose response, plasminogen activation absorbance, OD405 (AID 1914).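 Also: secreted streptokinase activity via plasminogen activation per viability signal from cell pellet.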 It counts as functional, Streptococcus pyogenes M1 GAS.

Test [1] deals with Streptococcus sp. 'group A'. Put plainly: growth inhibition of control SK(-) GAS strain, dose response, counter-screen for streptokinase expression inhibitor project, luminescence, kanamycin, BacTiterGlo, confirmation (AID 1900). It is filed as functional, organism-based. Background: The purpose of a counterscreen is to sort out artefacts and off-target activity.
A further test concerns Streptococcus. Put plainly: Group A Streptococcus viability loss, dose response, counter-screen for streptokinase expression inhibitor project, luminescence, BacTiterGlo (AID 1915).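 Also: potency for reduction of bacterial viability or growth.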 It counts as functional, organism-based.
Test [2] in a line: Luminescence Cell-Based Dose Retest to Confirm Inhibitors of Cancer Stem Cells. [Related pubchem assays (depositor defined):AID2717, AID2721]. It counts as functional. The following applies: Homo sapiens.
In another test the target is T2, Cytochrome P450 1A2 (Homo sapiens, UniProt P05177).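 Also: PubChem cytochrome P450 panel assay, CYP1A2 panel member.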
T2 sequence (P05177 whole entry): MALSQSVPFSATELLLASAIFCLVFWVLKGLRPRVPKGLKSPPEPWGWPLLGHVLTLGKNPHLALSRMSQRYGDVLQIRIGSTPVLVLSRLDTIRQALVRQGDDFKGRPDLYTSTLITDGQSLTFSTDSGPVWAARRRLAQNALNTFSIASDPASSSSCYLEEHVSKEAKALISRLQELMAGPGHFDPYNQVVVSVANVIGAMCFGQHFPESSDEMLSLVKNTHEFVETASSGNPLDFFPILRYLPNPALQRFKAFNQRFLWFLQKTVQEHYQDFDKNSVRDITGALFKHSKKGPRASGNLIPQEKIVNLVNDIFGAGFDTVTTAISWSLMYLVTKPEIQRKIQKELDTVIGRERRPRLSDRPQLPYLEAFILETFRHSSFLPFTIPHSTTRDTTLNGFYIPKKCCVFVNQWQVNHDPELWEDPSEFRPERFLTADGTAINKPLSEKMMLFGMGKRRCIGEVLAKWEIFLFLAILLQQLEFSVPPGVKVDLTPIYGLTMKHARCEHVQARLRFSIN

Another test deals with Cytochrome P450 2C19 (Homo sapiens, UniProt P33261). Put plainly: Cytochrome panel assay with activity outcomes. Panel member name: p450-cyp2c19 Compounds with AC50 equal or less than 10 uM are considered active. To be noted: read-out: AC50. It is filed as functional.
Cytochrome P450 2C19, sequence (P33261 whole entry): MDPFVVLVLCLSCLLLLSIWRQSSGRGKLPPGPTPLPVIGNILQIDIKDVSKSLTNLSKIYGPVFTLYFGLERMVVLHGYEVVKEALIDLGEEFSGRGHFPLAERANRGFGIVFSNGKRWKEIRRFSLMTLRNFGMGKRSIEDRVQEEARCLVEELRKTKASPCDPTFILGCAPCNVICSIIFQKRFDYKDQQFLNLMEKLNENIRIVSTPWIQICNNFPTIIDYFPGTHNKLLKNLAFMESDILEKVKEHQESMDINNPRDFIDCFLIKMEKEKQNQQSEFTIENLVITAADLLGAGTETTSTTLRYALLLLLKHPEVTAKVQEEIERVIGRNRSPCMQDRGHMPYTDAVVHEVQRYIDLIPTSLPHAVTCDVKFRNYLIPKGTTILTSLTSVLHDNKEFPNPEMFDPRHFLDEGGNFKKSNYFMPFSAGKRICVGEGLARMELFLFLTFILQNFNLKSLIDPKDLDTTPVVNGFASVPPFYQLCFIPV
Test [3] deals with T3, Heat shock factor protein 1 (Mus musculus, UniProt P38532).
T3 sequence (P38532 whole entry): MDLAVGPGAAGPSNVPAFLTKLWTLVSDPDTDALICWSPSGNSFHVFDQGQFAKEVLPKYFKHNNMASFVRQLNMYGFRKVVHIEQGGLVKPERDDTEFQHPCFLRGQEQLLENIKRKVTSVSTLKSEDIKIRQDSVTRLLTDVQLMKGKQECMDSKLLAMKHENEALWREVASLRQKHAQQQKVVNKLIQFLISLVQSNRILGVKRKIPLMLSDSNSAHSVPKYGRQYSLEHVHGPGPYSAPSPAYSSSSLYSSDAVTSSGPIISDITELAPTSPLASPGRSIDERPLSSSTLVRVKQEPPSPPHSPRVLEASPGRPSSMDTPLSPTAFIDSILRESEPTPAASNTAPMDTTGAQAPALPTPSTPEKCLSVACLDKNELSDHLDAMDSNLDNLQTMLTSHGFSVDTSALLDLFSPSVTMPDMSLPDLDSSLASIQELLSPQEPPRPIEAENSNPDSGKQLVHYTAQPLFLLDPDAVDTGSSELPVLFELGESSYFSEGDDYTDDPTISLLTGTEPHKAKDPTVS
Put plainly: inhibition of MG132-induced HSE-luciferase signal, confirmation, cell-based, NIH3T3, luminescence, dose retest (AID 2382).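 Also: NIH3T3 fibroblasts with HSF1-driven luciferase reporter stressed by proteasome inhibitor MG132; luminescence from HSF1-driven luciferase expression after 8 hours of MG132 stress.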 It counts as functional.

Activity calls are given as the source filed them.

Cytochrome P450 2D6, sequence (P10635 whole entry): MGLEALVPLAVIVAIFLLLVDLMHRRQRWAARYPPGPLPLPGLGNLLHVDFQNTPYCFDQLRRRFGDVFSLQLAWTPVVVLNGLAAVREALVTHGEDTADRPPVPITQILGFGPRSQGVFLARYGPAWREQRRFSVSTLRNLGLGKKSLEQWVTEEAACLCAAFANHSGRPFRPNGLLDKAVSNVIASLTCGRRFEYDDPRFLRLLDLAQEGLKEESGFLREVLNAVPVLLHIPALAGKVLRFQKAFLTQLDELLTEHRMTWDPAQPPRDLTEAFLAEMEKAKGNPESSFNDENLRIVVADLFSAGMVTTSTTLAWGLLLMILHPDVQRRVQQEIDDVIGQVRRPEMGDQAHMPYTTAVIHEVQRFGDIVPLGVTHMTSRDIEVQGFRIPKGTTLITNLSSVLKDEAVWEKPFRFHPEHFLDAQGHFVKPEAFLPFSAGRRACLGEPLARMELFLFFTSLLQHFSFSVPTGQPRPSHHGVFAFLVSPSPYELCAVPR
Cytochrome P450 3A4, sequence (P08684 whole entry): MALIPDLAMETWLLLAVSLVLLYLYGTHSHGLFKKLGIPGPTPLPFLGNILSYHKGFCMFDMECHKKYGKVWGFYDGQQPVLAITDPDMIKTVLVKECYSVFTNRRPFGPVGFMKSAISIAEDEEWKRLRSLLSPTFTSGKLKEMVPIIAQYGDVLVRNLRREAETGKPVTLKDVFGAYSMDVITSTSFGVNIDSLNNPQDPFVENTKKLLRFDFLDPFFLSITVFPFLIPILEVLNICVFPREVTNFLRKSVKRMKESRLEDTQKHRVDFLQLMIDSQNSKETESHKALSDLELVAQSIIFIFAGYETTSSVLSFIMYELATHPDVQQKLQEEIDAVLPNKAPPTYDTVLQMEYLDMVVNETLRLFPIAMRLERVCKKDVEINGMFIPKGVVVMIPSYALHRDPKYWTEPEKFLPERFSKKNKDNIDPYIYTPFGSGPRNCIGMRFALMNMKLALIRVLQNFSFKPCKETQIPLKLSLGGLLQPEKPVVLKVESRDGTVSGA
Cytochrome P450 2C9, sequence (P11712 whole entry): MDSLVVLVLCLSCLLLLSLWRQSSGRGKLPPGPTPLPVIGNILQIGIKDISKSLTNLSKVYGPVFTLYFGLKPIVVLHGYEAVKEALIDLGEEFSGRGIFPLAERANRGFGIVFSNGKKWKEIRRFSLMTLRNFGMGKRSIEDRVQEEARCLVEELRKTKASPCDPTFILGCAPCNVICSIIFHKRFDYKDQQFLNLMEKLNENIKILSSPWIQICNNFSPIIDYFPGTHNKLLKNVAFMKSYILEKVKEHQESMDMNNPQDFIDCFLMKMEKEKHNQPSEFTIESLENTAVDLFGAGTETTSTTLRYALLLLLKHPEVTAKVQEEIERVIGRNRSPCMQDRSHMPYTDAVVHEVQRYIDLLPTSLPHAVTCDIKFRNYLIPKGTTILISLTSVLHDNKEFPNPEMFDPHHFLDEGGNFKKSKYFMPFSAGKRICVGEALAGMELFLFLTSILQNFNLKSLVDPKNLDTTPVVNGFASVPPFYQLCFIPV

As a reminder, the EC50 is the concentration at which the effect is half-maximal. On to `CC(C)(C)c1cc(C(=O)Nc2ccc(F)cc2)n(Cc2ccc(F)cc2)n1`, for which the figures for the EC50 (on Streptokinase A; in [1]; with Streptococcus) were 2.85 µM (active), 7.02 µM (active) and 10.3 µM (active), respectively.

One may read the AC50 as the concentration giving half of the maximal activity seen. Consider `OCCCNc1nc(-c2ccccc2)c2cc(Br)ccc2n1`, for which the concentration at half-maximal activity (AC50) in test [2] was 24 µM (active).

Regarding `COc1ccc(-c2cc([C@H]3[C@@H]4C=CCC[C@@]4(C)C(=O)N3Cc3ccccc3)ccc2F)cc1OC`, the AC50 in test [2] is 3.92 µM (active).

`O=C(O)[C@H]1CN(CCCP(=O)(O)O)CCN1`: the half-maximal activity concentration (AC50) at Cytochrome P450 1A2 is 39.8 µM (inconclusive).

In the case of `NNC(=O)c1nn(-c2ccc(Cl)cc2)ccc1=O`, the half-maximal activity concentration (AC50) at Cytochrome P450 3A4 was 25.1 µM (inconclusive).

Regarding `Cl/C(=N\c1cccc2ccccc12)N(c1ccccc1)c1ccccc1`, the AC50 was 3.98 µM (inconclusive) on Cytochrome P450 3A4 and 1 µM (inconclusive) on Cytochrome P450 1A2.

On to `Cc1ccc(CCN2CC(C(=O)N3CCC4(CC3)OCCO4)CC2=O)cc1` (centres undefined), for which the concentration at half-maximal activity (AC50) is 17.8 µM (inconclusive) at Cytochrome P450 3A4 and 12.6 µM (inconclusive) at Cytochrome P450 2C9.

With `CCOC(=O)c1sc2c(c1C)c(=O)c(C(=O)OCC)cn2CC`, the AC50 at Cytochrome P450 1A2 is 25.1 µM (inconclusive).

On to `CC(=O)Nc1cccc(C(=O)OC(C(=O)c2ccc(C)c(C)c2)c2ccccc2)c1` (centres undefined), for which the AC50 on Cytochrome P450 2D6 is 17.8 µM (inconclusive); at Cytochrome P450 1A2 it was 22.4 µM (inconclusive).

As to `CCCC(c1nnnn1CC1CCCO1)N1CCN(c2cc(Cl)ccc2C)CC1` (centres undefined), in test [2], the AC50 was 3.53 µM (active).

Turning to `COc1ccccc1-c1nccc(NCc2cnc(C)cn2)n1`, at Cytochrome P450 3A4, the AC50 was 39.8 µM (inconclusive).

For `CC1(C)Cc2c(sc3c2C(=O)N(c2ccccc2)C2=NCCN23)CS1`, the AC50 on Cytochrome P450 1A2 is 22.4 µM (inconclusive).

As to `Cc1ccccc1NS(=O)(=O)c1ccc2ncc(C(=O)N(C)Cc3ccco3)c(O)c2c1`, the half-maximal activity concentration (AC50) at Cytochrome P450 3A4 is 0.794 µM (inconclusive); at Cytochrome P450 2D6 it was 17.8 µM (inconclusive).

As for `O=C1[C@H]2[C@H]3[C@H](O)[C@H](O)C/C(=N/OC[C@@H](O)COCc4ccco4)[C@H]3CC[C@@H]2C(=O)N1C1CCCCC1`, the concentration at half-maximal activity (AC50) at Cytochrome P450 3A4 was 3.98 µM (inconclusive).

`CC(=O)NCCNc1ncnc2ccc(-c3ccc(C(=O)N(C)C)cc3)cc12`: at Cytochrome P450 1A2, the concentration at half-maximal activity (AC50) is 25.1 µM (inconclusive).

Regarding `COc1ccc(/C=N/NC(=O)CCc2ccccc2)cc1O`, the values for the AC50 on Cytochrome P450 3A4 and on Cytochrome P450 2C19 were 22.4 µM (inconclusive) and 15.8 µM (inconclusive), respectively.

Take `O=C(c1ccc(CSc2ccccc2)cc1)N1CCN(c2ccccc2)CC1`: the AC50 in test [2] was 3.26 µM (active).

As to `CC(C)(C)N(Cc1ccccc1)C(=O)c1cc2ccccc2o1`, the AC50 in test [2] is 0.407 µM (active).

For `CN1CCN(c2ncc3nc(-c4cccs4)c(=O)n(C[C@H]4CCCO4)c3n2)CC1`, on Cytochrome P450 3A4, the AC50 is 10 µM (inconclusive).

Turning to `COC(=O)c1ccc(CN(c2ccc(C(=O)O)c(O)c2)S(=O)(=O)c2ccc(Cl)c([N+](=O)[O-])c2)cc1`, the values for the concentration giving a half-maximal response (EC50) (in [1]; in the test on Streptococcus) were 1.48 µM (active) and 5.96 µM (active), respectively. Also, the concentration at half-maximal activity (AC50) in test [2] is 4.38 µM (active).

Turning to `O=C(CSc1nnc(CNc2ccc(F)cc2)o1)N1c2ccccc2Sc2ccccc21`, at Cytochrome P450 1A2, the AC50 is 10 µM (inconclusive).

For `COc1cccc(-c2sc3ccc(OC)cc3c2C#CC2(O)CCCCC2)c1`, the half-maximal activity concentration (AC50) in test [2] was 3.74 µM (active).

Take `CO/N=C/C(=C\Nc1ccccc1)c1ncc(C(F)(F)F)cc1Cl`: the AC50 at Cytochrome P450 3A4 was 22.4 µM (inconclusive).

As for `CCc1nc(N2CCN(Cc3ccc4c(c3)OCO4)CC2)c2oc3ccccc3c2n1`, in test [2], the AC50 was 2.71 µM (active).

As for `Cc1cccc(NC(=S)c2nc3ccccc3s2)c1`, the AC50 is 3.98 µM (inconclusive) at Cytochrome P450 3A4 and 35.5 µM (inconclusive) on Cytochrome P450 2D6.

Regarding `Cn1c(OCc2ccc3c(c2)OCO3)nc2c1c(=O)n(Cc1ccc(Cl)c(Cl)c1)c(=O)n2C`, on Cytochrome P450 1A2, the concentration at half-maximal activity (AC50) is 14.1 µM (inconclusive).

Consider `COc1ccc(/C=C2\C(=O)c3ccccc3OC2c2ccccc2)cc1` (centres undefined), for which, in test [2], the AC50 is 1.12 µM (active).

`Oc1nc(Nc2cccc(Cl)c2)sc1/C=C1\C=Nc2ccccc21`: in test [2], the AC50 was 1.91 µM (active).

`CCOc1ccc(-c2nnc3ccc(SCC(=O)NCc4ccco4)nn23)cc1`: the AC50 at Cytochrome P450 3A4 is 7.94 µM (inconclusive); at Cytochrome P450 1A2 it was 15.8 µM (inconclusive); at Cytochrome P450 2C19, 1 µM (inconclusive).

In the case of `COc1ccc(NC(=O)CSc2nncn2C)c([N+](=O)[O-])c1`, the AC50 at Cytochrome P450 3A4 is 22.4 µM (inconclusive); at Cytochrome P450 2C9, 14.1 µM (inconclusive).

For `O=C1C2C(c3ccccc3)CC=CC2[C@H](c2ccc(C(F)(F)F)cc2)N1Cc1ccccc1` (some centres undefined), the AC50 in test [2] was 5.21 µM (active).

Regarding `O=C(Nc1ccc2c(c1)OCO2)c1cc(-c2cccc(O)c2)on1`, in test [2], the AC50 is 0.715 µM (active).

Regarding `O=C(Nc1ccc(Cl)cc1C(=O)c1ccccc1)c1ccco1`, the values for the AC50 on Cytochrome P450 3A4 and at Cytochrome P450 2C9 were 22.4 µM (inconclusive) and 3.98 µM (inconclusive), respectively.

For `CCCCOC(=O)CSCC(=O)Nc1cc(C)on1`, in [3], the EC50 is reported as > 195 µM (not active). Also, the AC50 is 25.1 µM (inconclusive) at Cytochrome P450 1A2 and 2.51 µM (inconclusive) on Cytochrome P450 2C9.

For `Cc1ccc(/N=C/c2cc(C)n(C3CCCC3)c2C)cc1`, the AC50 on Cytochrome P450 3A4 is 20 µM (inconclusive).

For the compound `Cc1cc2nc(CSc3ccccc3)cc(O)n2n1`, the half-maximal effective concentration (EC50) on Streptokinase A was > 150 µM (not active).

`Cc1c(C(=O)Nc2nccs2)sc2nc(-c3cccs3)cc(C(F)(F)F)c12`: the concentration at half-maximal activity (AC50) at Cytochrome P450 2D6 was 3.98 µM (inconclusive); at Cytochrome P450 2C19, 2.82 µM (inconclusive).

Consider `COC(=O)[C@@]1(Cc2ccccc2)[C@H]2c3cc(C(=O)N4CCCC4)n(Cc4c(CO)ncc(C)c4O)c3C[C@H]2CN1C(=O)c1ccccc1`, for which the AC50 on Cytochrome P450 1A2 is 5.01 µM (inconclusive).

`CC(C)Sc1cc(N2CCOCC2)nc(-c2ccc(Cl)cc2)n1`: the values for the AC50 on Cytochrome P450 3A4, at Cytochrome P450 2C9 and at Cytochrome P450 2C19 were 17.8 µM (inconclusive), 11.2 µM (inconclusive) and 11.2 µM (inconclusive), respectively.

As for `CC1CCCC(NC(=O)C2CCN(S(=O)(=O)N3CCC4(CC3)OCCO4)CC2)C1C` (centres undefined), the results for the concentration at half-maximal activity (AC50) at Cytochrome P450 3A4, at Cytochrome P450 2C9 and at Cytochrome P450 2C19 were 14.1 µM (inconclusive), 39.8 µM (inconclusive) and 6.31 µM (inconclusive), respectively.

On to `CCC12C=CCN3CCC4(c5cc(Br)c(OC)cc5N(C)C4C(O)(C(=O)OC)C1OC(C)=O)C32` (centres undefined), for which the half-maximal activity concentration (AC50) on Cytochrome P450 3A4 was 39.8 µM (inconclusive); at Cytochrome P450 2C9 it was 22.4 µM (inconclusive); on Cytochrome P450 2C19 it was 11.2 µM (inconclusive).

`Oc1c(C(O)(c2ccccc2)c2ccc3ccccc3c2O)ccc2ccccc12`: the figures for the concentration at half-maximal activity (AC50) at Cytochrome P450 2D6 and on Cytochrome P450 1A2 were 3.98 µM (inconclusive) and 1 µM (inconclusive), respectively.

For the compound `C[C@]1(C2CCCC2)Cc2cc(OCC(=O)O)c(Cl)c(Cl)c2C1=O`, the AC50 at Cytochrome P450 3A4 was 12.6 µM (inconclusive); at Cytochrome P450 2C9, 39.8 µM (inconclusive).

Regarding `CCNc1ncc2nc(-c3ccc(Cl)cc3)c(=O)n(-c3ccccc3)c2n1`, the half-maximal activity concentration (AC50) on Cytochrome P450 1A2 is 1 µM (inconclusive).
